According to PubChem BioAssay (NCI):
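Protocol summary: plate cells (96-well), add compound at 5 concentrations, incubate 48 h, interpolate endpoints linearly. GI50 is the concentration that inhibits growth by half. TGI is the concentration that stops growth completely.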

Columns and labels:
Test in all cases: growth of human tumour cells (NCI), 48 h
[1] = tested on: 786-0 renal
[2] = tested on: A498 renal
[3] = tested on: A549 NSCLC
[4] = tested on: ACHN renal
[5] = tested on: BT-549 breast
[6] = tested on: CAKI-1 renal
[7] = tested on: CCRF-CEM leukemia
[8] = tested on: COLO 205 colon
[9] = tested on: DU-145 prostate
[10] = tested on: EKVX NSCLC
[11] = tested on: HCT-116 colon
[12] = tested on: HCT-15 colon
[13] = tested on: HL-60(TB) leukemia
[14] = tested on: HOP-62 NSCLC
[15] = tested on: HOP-92 NSCLC
[16] = tested on: HS 578T breast
[17] = tested on: HT29 colon
[18] = tested on: IGROV1 ovarian
[19] = tested on: K-562 leukemia
[20] = tested on: KM12 colon
[21] = tested on: M14 melanoma
[22] = tested on: MALME-3M melanoma
[23] = tested on: MCF7 breast
[24] = tested on: MDA-MB-231 breast
[25] = tested on: MDA-MB-435
[26] = tested on: MOLT-4 leukemia
[27] = tested on: NCI-H226 lung
[28] = tested on: NCI-H23 lung
[29] = tested on: NCI-H460 lung
[30] = tested on: NCI-H522 lung
[31] = tested on: NCI/ADR-RES ovarian
[32] = tested on: OVCAR-3 ovarian
[33] = tested on: OVCAR-4 ovarian
[34] = tested on: OVCAR-5 ovarian
[35] = tested on: OVCAR-8 ovarian
[36] = tested on: PC-3 prostate
[37] = tested on: RPMI-8226 leukemia
[38] = tested on: RXF 393 renal
[39] = tested on: SF-268 CNS
[40] = tested on: SF-295 CNS
[41] = tested on: SF-539 CNS
[42] = tested on: SK-MEL-2 melanoma
[43] = tested on: SK-MEL-28 melanoma
[44] = tested on: SK-MEL-5 melanoma
[45] = tested on: SK-OV-3 ovarian
[46] = tested on: SN12C renal
[47] = tested on: SNB-19 CNS
[48] = tested on: SNB-75 CNS
[49] = tested on: SR leukemia
[50] = tested on: SW-620 colon
[51] = tested on: T-47D breast
[52] = tested on: U251 CNS
[53] = tested on: UACC-257 melanoma
[54] = tested on: UACC-62 melanoma
[55] = tested on: UO-31 renal
[56] = tested on: HCC-2998 colon
[57] = tested on: LOX IMVI melanoma
[58] = tested on: TK-10 renal

Nc1nc(N)c(C2=CCNCC2)c(=O)[nH]1 was tested, and the TGI [1] was > 100 µM, the TGI [2] was > 100 µM and the TGI [3] was > 100 µM. The TGI [4] was > 100 µM, the TGI [5] was > 100 µM and the TGI [6] was > 100 µM. For the same molecule, the TGI [7] was > 100 µM, the TGI [8] was > 100 µM and the TGI [9] was > 100 µM. For the same molecule, the TGI [10] was > 100 µM, the TGI [11] was > 100 µM and the TGI [12] was > 100 µM. The TGI [13] was > 100 µM, the TGI [14] was > 100 µM and the TGI [15] was > 100 µM. For the same molecule, the TGI [16] was > 100 µM, the TGI [17] was > 100 µM and the TGI [18] was > 100 µM. The TGI [19] was > 100 µM, the TGI [20] was > 100 µM and the TGI [21] was > 100 µM. The TGI [22] was > 100 µM, the TGI [23] was > 100 µM and the TGI [24] was > 100 µM. The TGI [25] was > 100 µM, the TGI [26] was > 100 µM and the TGI [27] was > 100 µM. For the same molecule, the TGI [28] was > 100 µM, the TGI [29] was > 100 µM and the TGI [30] was > 100 µM. For the same molecule, the TGI [31] was > 100 µM, the TGI [32] was > 100 µM and the TGI [33] was > 100 µM. The TGI [34] was > 100 µM, the TGI [35] was > 100 µM and the TGI [36] was > 100 µM. For the same molecule, the TGI [37] was > 100 µM, the TGI [38] was > 100 µM and the TGI [39] was > 100 µM. For the same molecule, the TGI [40] was > 100 µM, the TGI [41] was > 100 µM and the TGI [42] was > 100 µM. For the same molecule, the TGI [43] was > 100 µM, the TGI [44] was > 100 µM and the TGI [45] was > 100 µM. For the same molecule, the TGI [46] was > 100 µM, the TGI [47] was > 100 µM and the TGI [48] was > 100 µM. The TGI [49] was > 100 µM, the TGI [50] was > 100 µM and the TGI [51] was > 100 µM. The TGI [52] was > 100 µM, the TGI [53] was > 100 µM and the TGI [54] was > 100 µM. The TGI [55] was > 100 µM.
In the case of C/C(=N/Nc1nc2ccccc2n1C)c1ccccn1, the GI50 [1] is reported as 0.0638 µM, the TGI [1] is reported as 10.6 µM and the GI50 [2] is reported as 0.123 µM. The TGI [2] was 0.81 µM, the GI50 [3] was 0.106 µM and the TGI [3] was 14.5 µM. For the same molecule, the GI50 [4] was 0.0136 µM, the TGI [4] was 7.7 µM and the GI50 [5] was 0.223 µM. The TGI [5] was 25.5 µM, the GI50 [6] was 0.104 µM and the TGI [6] was 2.14 µM. It also gave a GI50 [7] of 0.0252 µM, a GI50 [8] of 0.0254 µM and a TGI [8] of 10.9 µM. It also gave a GI50 [9] of 0.141 µM, a TGI [9] of 17.7 µM and a GI50 [10] of 0.0418 µM. It also gave a TGI [10] of 13.5 µM, a GI50 [56] of 0.493 µM and a TGI [56] of 15.6 µM. The TGI [11] was 14.8 µM, the GI50 [12] was 0.0171 µM and the TGI [12] was 27.9 µM. It also gave a GI50 [13] of 0.0177 µM, a TGI [13] of 0.391 µM and a GI50 [14] of 0.185 µM. It also gave a TGI [14] of 4.49 µM, a GI50 [15] of 0.261 µM and a TGI [15] of 20 µM. For the same molecule, the GI50 [16] was 0.287 µM, the TGI [16] was 25.6 µM and the GI50 [17] was 0.044 µM. It also gave a TGI [17] of 24.4 µM, a GI50 [18] of 0.0327 µM and a TGI [18] of 12.5 µM. For the same molecule, the GI50 [19] was 0.0173 µM, the TGI [19] was > 100 µM and the GI50 [20] was 0.202 µM. The TGI [20] was 20.7 µM, the GI50 [57] was 0.0514 µM and the TGI [57] was 11.4 µM. For the same molecule, the GI50 [21] was 0.0489 µM, the TGI [21] was 0.285 µM and the GI50 [22] was 0.148 µM. It also gave a TGI [22] of 16.7 µM, a GI50 [23] of 0.0276 µM and a TGI [23] of 16.1 µM. It also gave a GI50 [24] of 0.0561 µM, a TGI [24] of 15.3 µM and a GI50 [25] of 0.229 µM. For the same molecule, the TGI [25] was 20.7 µM, the GI50 [26] was 0.0226 µM and the TGI [26] was > 39.1 µM. It also gave a GI50 [27] of 0.0584 µM, a TGI [27] of 4.69 µM and a GI50 [28] of 0.0443 µM. It also gave a TGI [28] of 19.3 µM, a GI50 [29] of 0.133 µM and a TGI [29] of 1.95 µM. For the same molecule, the GI50 [30] was 0.223 µM, the TGI [30] was 9.34 µM and the GI50 [31] was 0.0364 µM. The TGI [31] was 0.555 µM, the GI50 [32] was < 0.0153 µM and the TGI [32] was 14.1 µM. For the same molecule, the GI50 [33] was 0.0292 µM, the TGI [33] was 11.8 µM and the GI50 [34] was 0.243 µM. It also gave a TGI [34] of 39.7 µM, a GI50 [35] of 0.118 µM and a TGI [35] of 16.2 µM. For the same molecule, the GI50 [36] was 0.0369 µM, the TGI [36] was 36 µM and the GI50 [37] was 0.0398 µM. For the same molecule, the TGI [37] was 15.3 µM, the GI50 [38] was 0.169 µM and the TGI [38] was 3.24 µM. For the same molecule, the GI50 [39] was 0.202 µM, the TGI [39] was > 35.6 µM and the GI50 [40] was 0.28 µM. For the same molecule, the TGI [40] was 4.97 µM, the GI50 [41] was 0.225 µM and the TGI [41] was 1.94 µM. For the same molecule, the GI50 [42] was 0.706 µM, the TGI [42] was 22.3 µM and the GI50 [43] was 0.256 µM. For the same molecule, the TGI [43] was 29.1 µM, the GI50 [44] was 0.162 µM and the TGI [44] was 3.96 µM. It also gave a GI50 [45] of 0.113 µM, a TGI [45] of 5.93 µM and a GI50 [46] of 0.106 µM. The TGI [46] was 23 µM, the GI50 [47] was 0.327 µM and the TGI [47] was > 100 µM. It also gave a GI50 [48] of 0.246 µM, a TGI [48] of 8.86 µM and a GI50 [49] of 0.047 µM. For the same molecule, the TGI [49] was > 89.7 µM, the GI50 [50] was 0.0429 µM and the TGI [50] was 21.8 µM. For the same molecule, the GI50 [51] was < 0.0144 µM, the TGI [51] was 11.6 µM and the GI50 [58] was 0.44 µM. It also gave a TGI [58] of 32.6 µM, a GI50 [52] of 0.115 µM and a TGI [52] of 19.7 µM. For the same molecule, the GI50 [53] was 0.0377 µM, the TGI [53] was 0.489 µM and the GI50 [54] was 0.14 µM. For the same molecule, the TGI [54] was 0.793 µM, the GI50 [55] was 0.0672 µM and the TGI [55] was 1.59 µM.
